These results are taken from patent US20210115018A1, “PIPERIDINE COMPOUNDS AS COVALENT MENIN INHIBITORS” (THE REGENTS OF THE UNIVERSITY OF MICHIGAN, priority 2018, published 2021).

Where only a bound is given, the exact number is not on record here.

For orientation: IC50 means the concentration at which inhibition is half-maximal. Read a low IC50 as higher potency.

For one assay, the system named is MV4-11. In words: 7-day proliferation assay (WST-8), cell growth inhibition. To be noted: Homo sapiens, MV4-11, 168 h, MV4-11 cells, 7 days. It is filed as cell-based. The procedure, abridged:
(§1)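 Cells seeded at 2,000-3,000/well were exposed to serially diluted compound for 7 days at 37° C., 5% CO2. Viability was read by WST-8 absorbance at 450 nm after 1-2 h color development; readings normalized to DMSO-treated cells, IC50 by four-parameter nonlinear regression.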

For another assay, the system named is MOLM13. The assay is described as above. It is filed as cell-based. To be noted: Homo sapiens, MOLM-13, 168 h, MOLM13 cells, 7 days. The procedure, abridged: as §1

As for `COC(=O)N[C@H]1CCC[C@@H]1[C@](CN1CCC1)(c1cccc(F)c1)C1CCN(CC2(F)CN(c3ccc(S(=O)(=O)C4CCCN(C(=O)/C=C/CO)C4)cc3F)C2)CC1` (stereo partly drawn) [compound 122], the half-inhibitory concentration (IC50) with MV4-11 is less than 50 nM; in the assay on MOLM13, less than 100 nM.

Take `C=CC(=O)N1CCOCC(S(=O)(=O)c2ccc(N3CC(F)(CN4CCC([C@@](CN5CCC5)(c5cccc(F)c5)[C@H]5CCC[C@@H]5NC(=O)OC)CC4)C3)cc2)C1` (stereo partly drawn) [compound 125]: the concentration for half-maximal inhibition (IC50) in the assay on MV4-11 and in the assay with MOLM13 was less than 50 nM each time.

For the compound `C=CC(=O)N1CCc2ccc(S(=O)(=O)c3ccc(N4CC(F)(CN5CCC([C@@](CN6CCC6)(c6cccc(F)c6)[C@H]6CCC[C@@H]6NC(=O)OC)CC5)C4)c(F)c3)cc21` [compound 126], the IC50 with MV4-11 is less than 500 nM; in the assay on MOLM13, less than 1000 nM.

As to `C=CC(=O)N1CCc2c1cccc2S(=O)(=O)c1ccc(N2CC(F)(CN3CCC([C@@](CN4CCC4)(c4cccc(F)c4)[C@H]4CCC[C@@H]4NC(=O)OC)CC3)C2)c(F)c1` [compound 127], the IC50 in the assay with MV4-11 is less than 100 nM; in the assay with MOLM13 it was less than 500 nM.

`COC(=O)N[C@H]1CCC[C@@H]1[C@](CNC(C)=O)(c1cccc(F)c1)C1CCN(CC2CN(c3ccc(S(=O)(=O)C4CN(C(=O)/C=C/CN(C)C)C4)cc3)C2)CC1` [compound 128]: the figures for the half-maximal inhibitory concentration (IC50) with MV4-11 and in the assay with MOLM13 were less than 10 nM and less than 100 nM, respectively.

For `C=CC(=O)N1CC(S(=O)(=O)c2ccc(N3CC(CN4CCC([C@@](CNC(C)=O)(c5cccc(F)c5)[C@H]5CCC[C@@H]5NC(=O)OC)CC4)C3)cc2CN2CC(F)C2)C1` [compound 176], the half-maximal inhibitory concentration (IC50) in the assay with MV4-11 and in the assay on MOLM13 was less than 50 nM throughout.

As to `C=CC(=O)N1CC(S(=O)(=O)c2ccc(N3CC(F)(CN4CCC([C@@](CNC(C)=O)(c5cccc(F)c5)[C@H]5CCC[C@@H]5NC(=O)OC)CC4)C3)cc2CN2CC(F)C2)C1` [compound 177], the results for the half-inhibitory concentration (IC50) with MV4-11 and in the assay on MOLM13 were less than 100 nM and less than 500 nM, respectively.

Regarding `C=CC(=O)N1CCOC[C@@H](S(=O)(=O)c2ccc(N3CC(CN4CCC([C@@](CNC(=O)OC)(c5cccc(F)c5)[C@H]5CCC[C@@H]5NC(=O)OC)CC4)C3)c(F)c2)C1` [compound 179], the IC50 in the assay with MV4-11 was less than 50 nM; in the assay with MOLM13, less than 100 nM.

Regarding `C=CC(=O)N1CCOC[C@@H](S(=O)(=O)c2ccc(N3CC(C)(CN4CCC([C@@](CNC(=O)OC)(c5cccc(F)c5)[C@H]5CCC[C@@H]5NC(=O)OC)CC4)C3)c(F)c2)C1` [compound 181], the IC50 in the assay with MV4-11 is less than 50 nM; in the assay with MOLM13, less than 500 nM.

On to `C=CC(=O)N1CCOC[C@@H](S(=O)(=O)c2ccc(N3CC(CN4CCC([C@@](Cn5ccnn5)(c5cccc(F)c5)[C@H]5CCC[C@@H]5NC(=O)OC)CC4)C3)c(F)c2)C1` [compound 182], for which the IC50 in the assay on MV4-11 was less than 10 nM; with MOLM13 it was less than 100 nM.

For `C=CC(=O)N1CCOC[C@@H](S(=O)(=O)c2ccc(N3CC(F)(CN4CCC([C@@](Cn5ccnn5)(c5cccc(F)c5)[C@H]5CCC[C@@H]5NC(=O)OC)CC4)C3)c(F)c2)C1` [compound 184], the IC50 in the assay on MV4-11 and with MOLM13 was less than 500 nM throughout.

As for `C=CC(=O)N1CCOC[C@@H](S(=O)(=O)c2ccc(N3CC(C)(CN4CCC([C@@](Cn5ccnn5)(c5cccc(F)c5)[C@H]5CCC[C@@H]5NC(=O)OC)CC4)C3)c(F)c2)C1` [compound 185], the values for the IC50 in the assay on MV4-11 and in the assay on MOLM13 were less than 100 nM and less than 1000 nM, respectively.

`C=CC(=O)N1CCCC[C@@H](S(=O)(=O)c2ccc(N3CC(CN4CCC([C@@](CNC(=O)OC)(c5cccc(F)c5)[C@H]5CCC[C@@H]5NC(=O)OC)CC4)C3)c(F)c2)C1` [compound 186]: the half-inhibitory concentration (IC50) in the assay on MV4-11 and with MOLM13 was less than 50 nM each time.

For `C=CC(=O)Nc1cccc(S(=O)(=O)c2ccc(N3CC(CN4CCC([C@@](CN5CCC5)(c5cccc(F)c5)[C@H]5CCC[C@@H]5NC(=O)OC)CC4)(OC)C3)c(F)c2)c1` [compound 187], the half-maximal inhibitory concentration (IC50) with MV4-11 and in the assay with MOLM13 was less than 10 nM in each case.

Take `C=CC(=O)Nc1cccc(S(=O)(=O)c2ccc(N3CC(CN4CCC([C@@](CN5CCC5)(c5cccc(F)c5)[C@H]5CCC[C@@H]5NC(=O)OC)CC4)(OC)C3)cc2)c1` [compound 188]: the IC50 with MV4-11 and in the assay with MOLM13 was less than 10 nM throughout.

Take `C=CC(=O)N1CCC[C@@H](S(=O)(=O)c2ccc(N3CC(CN4CCC([C@@](CNC(C)=O)(c5cccc(F)c5)[C@H]5CCC[C@@H]5NC(=O)OC)CC4)C3)cc2)C1` [compound 199]: the IC50 in the assay with MV4-11 and with MOLM13 was less than 50 nM throughout.

Take `C=CC(=O)N1CCC[C@@H](S(=O)(=O)c2ccc(N3CC(O)(CN4CCC([C@@](CNC(C)=O)(c5cccc(F)c5)[C@H]5CCC[C@@H]5NC(=O)OC)CC4)C3)cc2)C1` [compound 205]: the IC50 in the assay on MV4-11 and in the assay on MOLM13 was less than 500 nM throughout.

With `C=CC(=O)N1CCC[C@@H](S(=O)(=O)c2ccc(N3CC(CN4CCC([C@@](CN5CCC5)(c5cccc(F)c5)[C@H]5CCC[C@@H]5NC(=O)OC)CC4)C3)cc2CN2CC(F)C2)C1` [compound 208], the IC50 in the assay on MV4-11 and in the assay with MOLM13 was less than 50 nM in each case.

With `C=CC(=O)N1CCC[C@@H](S(=O)(=O)c2ccc(N3CC(CN4CCC([C@@](CN5CCC5)(c5cccc(F)c5)[C@H]5CCC[C@@H]5NC(=O)OC)CC4)(OC)C3)cc2)C1` [compound 212], the IC50 in the assay on MV4-11 is less than 50 nM; in the assay with MOLM13, less than 100 nM.

`C=CC(=O)N1CCOC[C@H](S(=O)(=O)c2ccc(N3CC(C)(CN4CCC([C@@](CN5CCC5)(c5cccc(F)c5)[C@H]5CCC[C@@H]5NC(=O)OC)CC4)C3)cc2)C1` [compound 213]: the IC50 with MV4-11 is less than 50 nM; with MOLM13, less than 100 nM.

`C=CC(=O)N1CCOC[C@@H](S(=O)(=O)c2ccc(N3CC(C)(CN4CCC([C@@](CN5CCC5)(c5cccc(F)c5)[C@H]5CCC[C@@H]5NC(=O)OC)CC4)C3)cc2)C1` [compound 214]: the IC50 in the assay with MV4-11 and in the assay with MOLM13 was less than 500 nM each time.
